The results in this text go back to US11479553B2, “5-5 fused rings as C5a inhibitors” (CHEMOCENTRYX, INC., priority 2017, dated 2022).

For the test, the target named is C5aR (Homo sapiens (Human), UniProt P21730). Kind of test: Chemotaxis assay (inhibition of C5aR mediated migration toward C5a). The class given is cell-based. The note with it: inhibition in the chemotaxis assay (Example 14 B.3); U937 or neutrophil cells, C5a as chemoattractant. On the procedure: U937 cells are a monocytic cell line which express C5aR, and are available from ATCC (VA). These cells were cultured as a suspension in RPMI-1640 medium supplemented with 2 mM L-glutamine, 1.5 g/L sodium bicarbonate, 4.5 g/L glucose, 10 mM HEPES, 1 mM sodium pyruvate, and 10% FBS. Cells were grown under 5% CO2/95% air, 100% humidity at 37° C. and subcultured twice weekly at 1:6 (cells were cultured at a density range of 1×10^5 to 2×10^6 cells/mL) and harvested at 1×10^6 cells/mL. Prior to assay, cells are treated overnight with 0.5 mM of cyclic AMP (Sigma, OH) and washed once prior to use. cAMP treated U937 cells can be used in C5aR ligand binding and functional assays.
C5aR, sequence (P21730 whole entry): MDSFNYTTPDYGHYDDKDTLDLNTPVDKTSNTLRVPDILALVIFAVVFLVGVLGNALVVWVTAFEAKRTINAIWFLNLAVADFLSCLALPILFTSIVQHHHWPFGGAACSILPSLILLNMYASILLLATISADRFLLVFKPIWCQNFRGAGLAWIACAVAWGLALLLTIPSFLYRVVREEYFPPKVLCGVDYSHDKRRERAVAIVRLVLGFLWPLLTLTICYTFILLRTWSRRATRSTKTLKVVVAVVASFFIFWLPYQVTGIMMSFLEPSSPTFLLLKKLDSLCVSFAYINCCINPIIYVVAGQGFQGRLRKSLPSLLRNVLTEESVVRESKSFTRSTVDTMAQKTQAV
Optionally, human or murine neutrophils can be used to assay for compound activity. Neutrophils may be isolated from fresh human blood using density separation and centrifigation. Briefly, whole blood is incubated with equal parts 3% dextran and allowed to separate for 45 minutes. After separation, the top layer is layered on top of 15 mls of Ficoll (15 mls of Ficoll for every 30 mls of blood suspension) and centrifuged for 30 minutes at 400×g with no brake. The pellet at the bottom of the tube is then isolated and resuspended into PharmLyse RBC Lysis Buffer (BD Biosciences, San Jose, Calif.) after which the sample is again centrifuged for 10 minutes at 400×g with brake. The remaining cell pellet is resuspended as appropriate and consists of isolated neutrophils.
Optionally, compounds may be further assayed for their ability to inhibit chemotaxis in cells. Chemotaxis assays are performed using 5 μm pore polycarbonate, polyvinylpyrrolidone-coated filters in 96-well chemotaxis chambers (Neuroprobe; Gaithersburg, Md.) using chemotaxis buffer (Hank's balanced salt solution (HBSS) and 1% FBS). C5aR ligands (i.e., C5a, R&D Systems; Minneapolis, Minn.) are use to evaluate compound mediated inhibition of C5aR mediated migration. Other chemokines (i.e., SDF-1α; R&D Systems; Minneapolis, Minn.) are used as specificity controls. The lower chamber is loaded with 29 μl of chemokine (i.e., 0.03 nM C5a) and varying amounts of compound; the top chamber contains 100,000 U937 or neutrophil cells in 20 μl. The chambers are incubated 1.5 hours at 37° C., and the number of cells in the lower chamber quantified either by direct cell counts in five high powered fields per well or by the CyQuant assay (Molecular Probes), a fluorescent dye method that measures nucleic acid content and microscopic observation.

Usually IC50 stands for the point on the concentration scale where inhibition reaches its midpoint. A lower IC50 goes with greater potency in that assay.

In turn, `CCc1cccc(CC)c1-n1nc2c(c1-c1ccc(F)c3[nH]ccc13)CN(CC(C)(C)C)C2(C)C` [Compound 1.009] yielded an IC50 of 50 to 500 nM.

`CCc1cccc(CC)c1-n1nc2c(c1-c1ccc(F)c3[nH]ccc13)CN(CC(C)(C)C(F)(F)F)C2(C)C` [Compound 1.032] returned an IC50 of less than 5 nM. Take `CCc1cccc(CC)c1-n1nc2c(c1-c1ccc(F)c3[nH]ccc13)CN(C(=O)C(C)(C)C(F)(F)F)C2(C)C` [Compound 1.033]: the IC50 was in the range of 5 to 50 nM.

For `Cc1cccc(C)c1-n1nc2c(c1-c1ccc3[nH]ccc3c1)CN(CC(C)(C)C)C2` [Compound 1.051], the 50% inhibitory concentration (IC50) is not below 500 nM.
